What was measured:
[1] = Selectivity index, ratio of IC50 for human recombinant CDK5/p25 to porcine brain GSK3alpha/beta
[2] = biological target: Glycogen synthase kinase-3 (Sus scrofa, UniProt B2LUN4+I6LNT8); test: Inhibition of porcine brain GSK3alpha/beta using GS-1 substrate and ATP
[3] = biological target: Cyclin-dependent kinase 5/CDK5 activator 1 (Homo sapiens, UniProt Q00535); test: Inhibition of human recombinant CDK5/p25 using histone H1 substrate and ATP; assay type: protein-complex assay
Sequence of Cyclin-dependent kinase 5/CDK5 activator 1 (Q00535 whole entry): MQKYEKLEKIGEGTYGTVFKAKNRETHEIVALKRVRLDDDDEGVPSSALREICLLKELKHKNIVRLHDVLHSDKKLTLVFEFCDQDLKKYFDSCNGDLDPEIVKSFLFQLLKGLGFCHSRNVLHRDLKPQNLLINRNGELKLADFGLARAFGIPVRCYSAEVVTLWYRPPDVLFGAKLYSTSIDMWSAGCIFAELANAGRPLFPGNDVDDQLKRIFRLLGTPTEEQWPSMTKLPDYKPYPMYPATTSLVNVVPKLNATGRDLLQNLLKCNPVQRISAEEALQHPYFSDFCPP
Sequence of Cyclin-dependent kinase 5/CDK5 activator 1 (Q15078 whole entry, further chain): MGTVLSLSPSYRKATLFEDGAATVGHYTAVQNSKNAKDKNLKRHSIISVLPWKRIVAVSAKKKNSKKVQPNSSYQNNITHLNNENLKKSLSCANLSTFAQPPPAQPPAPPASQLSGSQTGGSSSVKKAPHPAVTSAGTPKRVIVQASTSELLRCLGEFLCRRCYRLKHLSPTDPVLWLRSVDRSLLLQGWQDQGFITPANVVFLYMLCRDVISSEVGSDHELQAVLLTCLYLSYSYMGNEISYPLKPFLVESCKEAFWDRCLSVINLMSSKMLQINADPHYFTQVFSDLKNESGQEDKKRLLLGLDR

cells = settings: Homo sapiens, Huh-7, 48 h
HCT-116 [4] = test: cells; settings: Homo sapiens, HCT-116, 48 h
MDA-MB-231 [5] = test: cells; settings: Homo sapiens, MDA-MB-231, 48 h
NCI-H727 [6] = test: cells; settings: Homo sapiens, NCI-H727, 48 h
PC-3 [7] = test: cells; settings: Homo sapiens, PC-3, 48 h
Caco-2 [8] = test: cells; settings: Homo sapiens, Caco-2, 48 h
MDA-MB-231 [9] = test system: MDA-MB-231
HCT-116 [10] = test system: HCT-116
PC-3 [11] = test system: PC-3
Caco-2 [12] = test system: Caco-2
NCI-H727 [13] = test system: NCI-H727
[14] = biological target: Dual specificity tyrosine-phosphorylation-regulated kinase 1A (Homo sapiens, UniProt Q13627); test: Inhibition of human recombinant GST-tagged DYRK1A expressed in Escherichia coli

Ratio IC50 [1]	IC50 [2] [nM]	IC50 [3] [nM]	IC50 [14] [nM]	SMILES	also measured
–	–	2100	–	O=C(Nc1ccccn1)Nc1cccc2c1[C@@H]1C[C@H](O)CCN1C2=O	–
–	–	1000	–	Cc1cccc(NC(=O)Nc2cccc3c2[C@@H]2C[C@H](O)CCN2C3=O)n1	IC50 (MDA-MB-231 [9]): Not Active; IC50 (HCT-116 [10]): Not Active; IC50 (PC-3 [11]): Not Active; IC50 (Caco-2 [12]): Not Active; IC50 (NCI-H727 [13]): Not Active
5	610	–	–	Cc1cccnc1NC(=O)Nc1cccc2c1C1CC3(CCN1C2=O)OCCO3 (configuration not stated)	–
6.8	81	550	> 10000	CO[C@@H]1CCN2C(=O)c3cccc(NC(=O)Nc4ccccn4)c3[C@@H]2C1 (relative stereo)	–
2.4	200	480	> 10000	CO[C@@H]1CCN2C(=O)c3cccc(NC(=O)Nc4cnccn4)c3[C@@H]2C1 (relative stereo)	–
–	32	84	> 10000	O=C(Nc1cnccn1)Nc1cccc2c1[C@@H]1C[C@H](O)CCN1C2=O (relative stereo)	IC50 (MDA-MB-231 [9]): Not Active; IC50 (HCT-116 [10]): Not Active; IC50 (PC-3 [11]): Not Active; IC50 (Caco-2 [12]): Not Active; IC50 (NCI-H727 [13]): Not Active
13.4	320	4300	> 10000	CO[C@@H]1CCN2C(=O)c3cccc(NC(=O)Nc4cccc(C)n4)c3[C@@H]2C1 (relative stereo)	–
–	35	4900	> 10000	COc1cc(NC(=O)Nc2cccc3c2[C@@H]2C[C@H](O)CCN2C3=O)nc2ccccc12 (relative stereo)	IC50 (MDA-MB-231 [9]): Not Active; IC50 (HCT-116 [10]): Not Active; IC50 (PC-3 [11]): Not Active; IC50 (Caco-2 [12]): Not Active; IC50 (NCI-H727 [13]): Not Active
–	–	1100	> 10000	CO[C@@H]1CCN2C(=O)c3cccc(NC(=O)Nc4ncccc4C)c3[C@@H]2C1 (relative stereo)	–
–	–	630	–	Cc1cccnc1NC(=O)Nc1cccc2c1[C@@H]1C[C@H](O)CCN1C2=O (relative stereo)	–
–	–	2300	> 10000	CO[C@@H]1CCN2C(=O)c3cccc(NC(=O)Nc4ccn(C)n4)c3[C@@H]2C1 (relative stereo)	–
10	32	320	> 10000	CO[C@@H]1CCN2C(=O)c3cccc(NC(=O)Nc4cc(C)ccn4)c3[C@@H]2C1 (relative stereo)	IC50 (cells): 100 nM; IC50 (HCT-116 [4]): 30 nM; IC50 (MDA-MB-231 [5]): 300 nM; IC50 (NCI-H727 [6]): 400 nM; IC50 (PC-3 [7]): 400 nM; IC50 (Caco-2 [8]): 500 nM

The next lines start with the compound.

SMILES	Ratio IC50 [1]	IC50 [2] [nM]	IC50 [3] [nM]	IC50 [14] [nM]	also measured
O=C(Nc1ccccn1)Nc1cccc2c1C1CC3(CCN1C2=O)SCCS3 (configuration not stated)	7.2	33	–	–	–
O=C1CCN2C(=O)c3cccc(NC(=O)Nc4ccccn4)c3C2C1 (configuration not stated)	–	230	1600	–	–
O=C(Nc1cnccn1)Nc1cccc2c1C1CC3(CCN1C2=O)SCCS3 (configuration not stated)	–	44	–	–	IC50 (cells): 100 nM; IC50 (HCT-116 [4]): 100 nM; IC50 (MDA-MB-231 [5]): 150 nM; IC50 (NCI-H727 [6]): 400 nM; IC50 (PC-3 [7]): 600 nM; IC50 (Caco-2 [8]): 500 nM
O=C1CCN2C(=O)c3cccc(NC(=O)Nc4cnccn4)c3C2C1 (configuration not stated)	–	1200	3600	–	–
Cc1cccc(NC(=O)Nc2cccc3c2C2CC4(CCN2C3=O)OCCO4)n1 (configuration not stated)	> 10	920	–	–	–
Cc1cccc(NC(=O)Nc2cccc3c2C2CC4(CCN2C3=O)SCCS4)n1 (configuration not stated)	> 5	2000	–	–	–
COc1cc(NC(=O)Nc2cccc3c2C2CC4(CCN2C3=O)OCCO4)nc2ccccc12 (configuration not stated)	> 10	1000	–	–	–
COc1cc(NC(=O)Nc2cccc3c2C2CC4(CCN2C3=O)SCCS4)nc2ccccc12 (configuration not stated)	> 2.5	4000	–	–	–
Cn1ccc(NC(=O)Nc2cccc3c2C2CC4(CCN2C3=O)SCCS4)n1 (configuration not stated)	> 5.2	1900	–	–	–
Cc1cnc(NC(=O)Nc2cccc3c2C2CC4(CCN2C3=O)SCCS4)cn1 (configuration not stated)	–	55	–	–	IC50 (cells): 300 nM; IC50 (HCT-116 [4]): 200 nM; IC50 (MDA-MB-231 [5]): 400 nM; IC50 (NCI-H727 [6]): 800 nM; IC50 (PC-3 [7]): 400 nM; IC50 (Caco-2 [8]): 500 nM
O=C(Nc1ccc(Br)cn1)Nc1cccc2c1C1CC3(CCN1C2=O)SCCS3 (configuration not stated)	107	68	–	–	–
COc1cc(NC(=O)Nc2cccc3c2[C@@H]2C[C@H](OC)CCN2C3=O)nc2ccccc12 (relative stereo)	47.5	180	8500	> 10000	–
CO[C@@H]1CCN2C(=O)c3cccc(NC(=O)Nc4cnc(C)cn4)c3[C@@H]2C1 (relative stereo)	10	140	320	> 10000	–
